The text below walks through data of ChEMBL document CHEMBL5108021, “Discovery of 3-pyrazolyl-substituted pyrazolo[1,5-a]pyrimidine derivatives as potent TRK inhibitors to overcome clinically acquired resistance” (Eur J Med Chem, 2022).

The test system of assay [1] is BaF3. Kind of assay: Antitumor activity against mouse BaF3 cells expressing […]-wild type TRKA xenografted in BALB/c mouse assessed as inhibition of tumor growth at 30 mg/kg, po bid for 11 to 14 days by microcaliper analysis. Type of assay: functional. As to conditions: time 11-14 day, read-out: TGI.
Assay [2] deals with BaF3. Kind of assay: animal or person. As to conditions: Mus musculus, BaF3, po, read-out: TGI.

For the molecule `O=C(Nc1cnn2ccc(N3CCC[C@@H]3c3cc(F)ccc3F)nc12)N1CC[C@H](O)C1` [LAROTRECTINIB], the inhibition in vivo at 30 mg/kg in assay [1] is 74%.
`C[C@@H]1CCc2ncc(F)cc2[C@H]2CCCN2c2ccn3ncc(c3n2)C(=O)N1` [SELITRECTINIB]: the inhibition in vivo at 100 mg/kg in assay [2] amounted to 64%.
